Measured values as given in ChEMBL document CHEMBL1152541, “Staurosporine tethered peptide ligands that target cAMP-dependent protein kinase (PKA): optimization and selectivity profiling” (Bioorg Med Chem, 2009).
*1 amine or outer side, *2 acyl side, *3 side chain or, on linkers, in order; H or OH if unused. Where a SMILES comes first, the peptide text is derived from it. Bridges are numbered along the chain shown (N, C = ends). The star is where a group is joined. Staurosporine = CO[C@@H]1[C@H](N(C)*)C[C@H]2O[C@]1(C)n1c3ccccc3c3c4c(c5c6ccccc6n2c5c31)C(=O)NC4; Suc = O=C(CCC(=O)[*:2])[*:1]; βAla = NCCC(=O)O

What was measured:
[1] = Ratio of inhibition of PKA in presence of DTT to inhibition of PKA in absence of DTT
[2] = Noncompetitive inhibition of PKA assessed as [gamma-32P]ATP labeling of kemptide by liquid scintillation counting
[3] = Ratio of compound IC50 to bivalent ligand 1 IC50 for PKA
[4] = Competitive inhibition of PKA assessed as [gamma-32P]ATP labeling of kemptide by liquid scintillation counting
[5] = Mixed inhibition of PKA assessed as [gamma-32P]ATP labeling of kemptide by liquid scintillation counting
[6] = Uncompetitive inhibition of PKA assessed as [gamma-32P]ATP labeling of kemptide by liquid scintillation counting

| Ratio [1] | Ki [2] [µM] | Km [2] [µM] | SMILES | also measured |
| --- | --- | --- | --- | --- |
| – | 85.6 | 13.3 | CC(C)[C@@H]1NC(=O)[C@H](CCCNC(=N)N)NC(=O)[C@H](Cc2ccccc2)NC(=O)[C@H](C(C)C)NC(=O)[C@@H](N)CSSC[C@@H](C(=O)NCC(N)=O)NC(=O)CNC(=O)[C@H](Cc2ccccc2)NC1=O (HELM PEPTIDE1{C.V.F.R.V.F.G.C.G.[am]}$PEPTIDE1,PEPTIDE1,1:R3-8:R3$$$V2.0) | Ratio IC50 [3]: > 21000 |
| 2.7 | – | – | CO[C@@H]1[C@H](N(C)C(=O)CCC(=O)NCCC(=O)NCCC(=O)NCCC(=O)NCCC(=O)NCCC(=O)NCCC(=O)NCCC(=O)NCCC(=O)NCCC(=O)N[C@H]2CSSC[C@@H](C(=O)NCC(N)=O)NC(=O)CNC(=O)[C@H](Cc3ccccc3)NC(=O)[C@H](C(C)C)NC(=O)[C@H](CCCNC(=N)N)NC(=O)[C@H](Cc3ccccc3)NC(=O)[C@H](C(C)C)NC2=O)C[C@H]2O[C@]1(C)n1c3ccccc3c3c4c(c5c6ccccc6n2c5c31)C(=O)NC4 ({Staurosporine-Suc-βAla-βAla-βAla-βAla-βAla-βAla-βAla-βAla-βAla}-CVFRVFGCG-NH2; disulfide 1-8) | – |

Continued, molecule first:

| SMILES | Ratio [1] | Ki [2] [µM] | Km [2] [µM] | also measured |
| --- | --- | --- | --- | --- |
| CO[C@@H]1[C@H](N(C)C(=O)CCC(=O)NCCC(=O)NCCC(=O)NCCC(=O)N[C@H]2CSSC[C@@H](C(=O)NCC(N)=O)NC(=O)CNC(=O)[C@H](Cc3ccccc3)NC(=O)[C@H](C(C)C)NC(=O)[C@H](CCCNC(=N)N)NC(=O)[C@H](Cc3ccccc3)NC(=O)[C@H](C(C)C)NC2=O)C[C@H]2O[C@]1(C)n1c3ccccc3c3c4c(c5c6ccccc6n2c5c31)C(=O)NC4 ({Staurosporine-Suc-βAla-βAla-βAla}-CVFRVFGCG-NH2; disulfide 1-8) | 2.7 | – | – | – |
| CC(C)C[C@H](NC(=O)[C@H](CO)NC(=O)[C@H](C)NC(=O)[C@H](CCCNC(=N)N)NC(=O)[C@H](CCCNC(=N)N)NC(=O)[C@@H](N)CC(C)C)C(=O)NCC(=O)O [KEMPTIDE] | – | 86 | 13.3 | – |
| CO[C@@H]1[C@H](N(C)C(=O)CCC(=O)NCCC(=O)NCCC(=O)NCCC(=O)NCCC(=O)NCCC(=O)N[C@H]2CSSC[C@@H](C(=O)NCC(N)=O)NC(=O)CNC(=O)[C@H](Cc3ccccc3)NC(=O)[C@H](C(C)C)NC(=O)[C@H](CCCNC(=N)N)NC(=O)[C@H](Cc3ccccc3)NC(=O)[C@H](C(C)C)NC2=O)C[C@H]2O[C@]1(C)n1c3ccccc3c3c4c(c5c6ccccc6n2c5c31)C(=O)NC4 ({Staurosporine-Suc-βAla-βAla-βAla-βAla-βAla}-CVFRVFGCG-NH2; disulfide 1-8) | 2.7 | – | – | – |
| CO[C@@H]1[C@H](N(C)C(=O)CCC(=O)NCCCOCCCNC(=O)COCC(=O)N[C@H]2CSSC[C@@H](C(=O)NCC(N)=O)NC(=O)CNC(=O)[C@H](Cc3ccccc3)NC(=O)[C@H](C(C)C)NC(=O)[C@H](CCCNC(=N)N)NC(=O)[C@H](Cc3ccccc3)NC(=O)[C@H](C(C)C)NC2=O)C[C@H]2O[C@]1(C)n1c3ccccc3c3c4c(c5c6ccccc6n2c5c31)C(=O)NC4 (HELM PEPTIDE1{[CO[C@@H]1[C@H](N(C)C(=O)CCC(=O)NCCCOCCCNC(=O)COCC(=O)[*:2])C[C@H]2O[C@]1(C)n1c3ccccc3c3c4c(c5c6ccccc6n2c5c31)C(=O)NC4].C.V.F.R.V.F.G.C.G.[am]}$PEPTIDE1,PEPTIDE1,2:R3-9:R3$$$V2.0) | – | 0.002 | 12 | Ki [4]: 10.1 µM; Km [5]: 11.2 µM; Km [6]: 13.9 µM |
